The values that follow come from patent publication US9556139B2, “6-substituted phenoxychroman carboxylic acid derivatives” (Array BioPharma Inc., priority 2008, dated 2017).

Sequence of human DP2 (Q9Y5Y4 whole entry): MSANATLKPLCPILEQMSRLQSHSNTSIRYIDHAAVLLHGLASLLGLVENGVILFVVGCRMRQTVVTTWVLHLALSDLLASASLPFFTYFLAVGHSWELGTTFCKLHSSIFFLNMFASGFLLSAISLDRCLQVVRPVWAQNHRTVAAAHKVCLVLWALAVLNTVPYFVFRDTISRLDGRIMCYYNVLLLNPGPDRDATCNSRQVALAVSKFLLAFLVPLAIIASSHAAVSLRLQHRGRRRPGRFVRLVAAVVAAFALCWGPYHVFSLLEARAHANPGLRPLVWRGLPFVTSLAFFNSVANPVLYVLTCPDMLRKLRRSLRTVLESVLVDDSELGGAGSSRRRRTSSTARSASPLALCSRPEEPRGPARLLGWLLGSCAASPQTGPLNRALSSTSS

For one assay, the target named is human DP2 (Homo sapiens (Human), UniProt Q9Y5Y4). Briefly: DP-2 Binding Inhibition Assay (3H-PGD2 binding to membranes of K562 cells expressing DP2). To be noted: read-out: EC50 (Nm) 1% HSA; inhibition of 3H-PGD2 binding, 1% HSA. The essentials:
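Membranes from K562 stably expressing DP2, incubated 60 min at room temperature with ³H-PGD2 and compound in Tris pH 7.4 buffer with 0.1% BSA, 1% HSA or 4% HSA; filtration read-out. Nonspecific binding: 1 μM unlabeled PGD2 or 5 μM known antagonist. EC50 from 4-parameter logistic fit.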
For `Cc1cc(C(=O)NCCc2ccc(Cl)cc2)ccc1Oc1cc2c(cc1C#N)C(C(=O)O)CCO2` (centres unmarked) [Example 129, 7-(4-(4-Chlorophenethylcarbamoyl)-2-methylphenoxy)-6-cyanochroman-4-carboxylic acid], the EC50 turned out to be 21.9 nM.

The same assay, now with this note: read-out: EC50 (nM) 4% HSA; inhibition of 3H-PGD2 binding, 4% HSA.
Regarding `O=C(NCCc1cccc(O)c1)c1ccc(Oc2cc3c(cc2Cl)C(C(=O)O)CCO3)cc1` (centres unmarked) [Example 83, Sodium 6-chloro-7-(4-(3-hydroxyphenethylcarbamoyl)phenoxy)chroman-4-carboxylate], the EC50 worked out at 569 nM.

In the case of `O=C(NC(CO)Cc1ccc(Cl)cc1)c1ccc(Oc2cc3c(cc2Cl)C(C(=O)O)CCO3)cc1` (centres unmarked) [Example 178, Sodium 6-chloro-7-(4-(1-(4-chlorophenyl)-3-hydroxypropan-2-ylcarbamoyl)phenoxy)chroman-4-carboxylate], the EC50 was 1730 nM.

For `COc1ccc(Br)cc1CCNC(=O)c1ccc(Oc2cc3c(cc2Cl)C(C(=O)O)CCO3)cc1` (centres unmarked) [Example 90, Sodium 7-(4-(5-bromo-2-methoxyphenethylcarbamoyl)phenoxy)-6-chlorochroman-4-carboxylate], the EC50 is 153 nM.

As for `O=C(NCCOc1ccccc1Cl)c1ccc(Oc2cc3c(cc2Cl)C(C(=O)O)CCO3)cc1` (centres unmarked) [Example 115, Sodium 6-chloro-7-(4-(2-(2-chlorophenoxyl)ethylcarbamoyl)phenoxy)chroman-4-carboxylate], the EC50 amounted to 2440 nM.

For `COc1cc(Br)ccc1CCNC(=O)c1ccc(Oc2cc3c(cc2Cl)C(C(=O)O)CCO3)cc1` (centres unmarked) [Example 35, Sodium 7-(4-(4-bromo-2-methoxyphenethylcarbamoyl)phenoxy)-6-chlorochroman-4-carboxylate], the concentration giving a half-maximal response (EC50) stood at 64.3 nM.

Consider `COc1cccc(CCNC(=O)c2ccc(Oc3cc4c(cc3Cl)C(C(=O)O)CCO4)cc2)c1` (centres unmarked) [Example 143, Sodium 6-chloro-7-(4-(3-methoxyphenethylcarbamoyl)phenoxy)chroman-4-carboxylate], for which the 50% effective concentration (EC50) was 1010 nM.

On to `Cc1cc(C(=O)NCCc2ccc(Cl)cc2Cl)ccc1Oc1cc2c(cc1Cl)C(C(=O)O)CCO2` (centres unmarked) [Example 182, Sodium 6-chloro-7-(4-(2,4-dichlorophenethylcarbamoyl)-2-methylphenoxy)chroman-4-carboxylate], for which the concentration for a half-maximal effect (EC50) came out at 151 nM.

Consider `CN(C)Cc1ccc(CCNC(=O)c2ccc(Oc3cc4c(cc3C#N)C(C(=O)O)CCO4)cc2)cc1` (centres unmarked) [Example 44, 6-Cyano-7-(4-(4-((dimethylamino)methyl)phenethylcarbamoyl)phenoxy)chroman-4-carboxylic acid], for which the EC50 worked out at 3480 nM.

On to `O=C(NCCc1ccc(-c2ccccc2)cc1)c1ccc(Oc2cc3c(cc2Cl)C(C(=O)O)CCO3)cc1` (centres unmarked) [Example 59], for which the EC50 was determined as 158 nM.

For `N#Cc1cc2c(cc1Oc1ccc(C(=O)Nc3ccc(-c4ccc(Cl)cc4)cc3)cc1)OCCC2C(=O)O` (centres unmarked) [Example 69, 7-(4-(4′-Chlorobiphenyl-4-ylcarbamoyl)phenoxy)-6-cyanochroman-4-carboxylic acid], the EC50 amounted to 240 nM.

Consider `O=C(NCCc1ccc2c(c1)OCO2)c1ccc(Oc2cc3c(cc2Cl)C(C(=O)O)CCO3)cc1` (centres unmarked) [Example 110, Sodium 7-(4-(2-(benzo[d][1,3]dioxol-5-yl)ethylcarbamoyl)phenoxy)-6-chlorochroman-4-carboxylate], for which the EC50 stood at 607 nM.

In the case of `COc1ccccc1CCNC(=O)c1ccc(Oc2cc3c(cc2Cl)C(C(=O)O)CCO3)cc1` (centres unmarked) [Example 63, Sodium 6-chloro-7-(4-(2-methoxyphenethylcarbamoyl)phenoxy)chroman-4-carboxylate], the 50% effective concentration (EC50) was determined as 305 nM.

As for `O=C(NCCCCc1ccccc1Cl)c1ccc(Oc2cc3c(cc2Cl)C(C(=O)O)CCO3)cc1` (centres unmarked) [Example 17, Sodium 6-chloro-7-(4-(4-(2-chlorophenyl)butylcarbamoyl)phenoxy)chroman-4-carboxylate], the EC50 is 395 nM.

Regarding `CSc1cccc(C2CCC(NC(=O)c3ccc(Oc4cc5c(cc4Cl)C(C(=O)O)CCO5)cc3)C2)c1` (centres unmarked) [Example 172, Sodium 6-chloro-7-(4-(3-(3-(methylthio)phenyl)cyclopentylcarbamoyl)phenoxy)chroman-4-carboxylate], the EC50 is 282 nM.

As for `CSc1ccc(CCNC(=O)c2ccc(Oc3cc4c(cc3Cl)C(C(=O)O)CCO4)cc2)cc1` (centres unmarked) [Example 118, Sodium 6-chloro-7-(4-(4-(methylthio)phenethylcarbamoyl)phenoxy)chroman-4-carboxylate], the EC50 came out at 426 nM.

Regarding `O=C(NCC(O)c1ccc(Cl)cc1Cl)c1ccc(Oc2cc3c(cc2Cl)C(C(=O)O)CCO3)cc1` (centres unmarked) [Example 197, sodium 6-chloro-7-(4-(2-(2,4-dichlorophenyl)-2-hydroxyethylcarbamoyl)phenoxy)chroman-4-carboxylate], the EC50 was determined as 689 nM.

Turning to `CCc1ccccc1CCNC(=O)c1ccc(Oc2cc3c(cc2Cl)C(C(=O)O)CCO3)cc1` (centres unmarked) [Example 196, sodium 6-chloro-7-(4-(2-ethylphenethylcarbamoyl)phenoxy)chroman-4-carboxylate], the EC50 was 269 nM.

In the case of `CC(C)(C)c1ccc(CCNC(=O)c2ccc(Oc3cc4c(cc3Cl)C(C(=O)O)CCO4)cc2)cc1` (centres unmarked) [Example 142, Sodium 7-(4-(4-tert-butylphenethylcarbamoyl)phenoxy)-6-chlorochroman-4-carboxylate], the EC50 worked out at 140 nM.

Take `CC(C)(C)Oc1ccccc1CCNC(=O)c1ccc(Oc2cc3c(cc2Cl)C(C(=O)O)CCO3)cc1` (centres unmarked) [Example 116, Sodium 7-(4-(2-tert-butoxyphenethylcarbamoyl)phenoxy)-6-chlorochroman-4-carboxylate]: the EC50 was determined as 304 nM.

Take `CC(C)(C)C1CCC(NC(=O)c2ccc(Oc3cc4c(cc3C#N)C(C(=O)O)CCO4)cc2)CC1` (centres unmarked) [Example 127, 7-(4-(4-tert-Butylcyclohexylcarbamoyl)phenoxy)-6-cyanochroman-4-carboxylic acid]: the 50% effective concentration (EC50) stood at 270 nM.

Regarding `COc1ccc(CCNC(=O)c2ccc(Oc3cc4c(cc3Cl)C(C(=O)O)CCO4)cc2)cc1OC` (centres unmarked) [Example 141, Sodium 6-chloro-7-(4-(3,4-dimethoxyphenethylcarbamoyl)phenoxy)chroman-4-carboxylate], the 50% effective concentration (EC50) was 1000 nM.

On to `CCOc1ccc(CCNC(=O)c2ccc(Oc3cc4c(cc3Cl)C(C(=O)O)CCO4)cc2)c(OCC)c1` (centres unmarked) [Example 225, 6-chloro-7-(4-(2,4-diethoxyphenethylcarbamoyl)phenoxy)chroman-4-carboxylic acid], for which the 50% effective concentration (EC50) was 56 nM.

Turning to `O=C(NC1CCC(c2ccc(Cl)cc2)CC1)c1ccc(Oc2cc3c(cc2Cl)C(C(=O)O)CCO3)cc1` (centres unmarked) [Example 176, Sodium 6-chloro-7-(4-(4-(4-chlorophenyl)cyclohexylcarbamoyl)phenoxy)chroman-4-carboxylate], the EC50 was 339 nM.

Turning to `CSc1ccc(C2CCCC(NC(=O)c3ccc(Oc4cc5c(cc4Cl)C(C(=O)O)CCO5)cc3)C2)cc1` (centres unmarked) [Example 162, 6-Chloro-7-(4-(3-(4-(methylthio)phenyl)cyclohexylcarbamoyl)phenoxy)chroman-4-carboxylic acid], the EC50 amounted to 430 nM.

As for `O=C(NCC1Cc2ccccc2C1)c1ccc(Oc2cc3c(cc2Cl)C(C(=O)O)CCO3)cc1` (centres unmarked) [Example 111, Sodium 6-chloro-7-(4-((2,3-dihydro-1H-inden-2-yl)methylcarbamoyl)phenoxy)chroman-4-carboxylate], the EC50 is 174 nM.

With `O=C(NCCc1cccc(F)c1)c1ccc(Oc2cc3c(cc2Cl)C(C(=O)O)CCO3)cc1` (centres unmarked) [Example 145, Sodium 6-chloro-7-(4-(3-fluorophenethylcarbamoyl)phenoxy)chroman-4-carboxylate], the EC50 was 655 nM.

For the compound `COc1cc(Cl)c(CCNC(=O)c2ccc(Oc3cc4c(cc3Cl)C(C(=O)O)CCO4)cc2)c(Cl)c1` (centres unmarked) [Example 224, 6-chloro-7-(4-(2,6-dichloro-4-methoxyphenethylcarbamoyl)phenoxy)chroman-4-carboxylic acid], the concentration giving a half-maximal response (EC50) was determined as 373 nM.

With `O=C(NCCc1ccc(Cl)cc1)c1ccc(Oc2c(Cl)cc3c(c2Br)OCCC3C(=O)O)cc1` (centres unmarked) [Example 38, Sodium 8-bromo-6-chloro-7-(4-(4-chlorophenethylcarbamoyl)phenoxy)chroman-4-carboxylate], the EC50 was determined as 366 nM.

Take `Cc1ccc(C2CCC(NC(=O)c3ccc(Oc4cc5c(cc4Cl)C(C(=O)O)CCO5)cc3)C2)cc1` (centres unmarked) [Example 166, 6-Chloro-7-(4-(3-p-tolylcyclopentylcarbamoyl)phenoxy)chroman-4-carboxylic acid]: the EC50 is 272 nM.

Consider `O=C(NC1CCC(c2cccc(Cl)c2)C1)c1ccc(Oc2cc3c(cc2Cl)C(C(=O)O)CCO3)cc1` (centres unmarked) [Example 167, 6-Chloro-7-(4-(3-(3-chlorophenyl)cyclopentylcarbamoyl)phenoxy)chroman-4-carboxylic acid], for which the 50% effective concentration (EC50) turned out to be 179 nM.

With `O=C(NCCc1ccccc1-c1ccccc1Cl)c1ccc(Oc2cc3c(cc2Cl)C(C(=O)O)CCO3)cc1` (centres unmarked) [Example 96, Sodium 6-chloro-7-(4-(2-(2′-chlorobiphenyl-2-yl)ethylcarbamoyl)phenoxy)chroman-4-carboxylate], the EC50 stood at 40.2 nM.

In the case of `O=C(NC1CCN(c2cccc(Cl)c2)CC1)c1ccc(Oc2cc3c(cc2Cl)C(C(=O)O)CCO3)cc1` (centres unmarked) [Example 120, Sodium 6-chloro-7-(4-(1-(3-chlorophenyl)piperidin-4-ylcarbamoyl)phenoxy)chroman-4-carboxylate], the half-maximal effective concentration (EC50) amounted to 371 nM.

`CSc1ccc(C2CCC(NC(=O)c3ccc(Oc4cc5c(cc4Cl)C(C(=O)O)CCO5)cc3)C2)cc1` (centres unmarked) [Example 175, Sodium 6-chloro-7-(4-(3-(4-(methylthio)phenyl)cyclopentylcarbamoyl)phenoxy)chroman-4-carboxylate]: the EC50 is 572 nM.

Take `CC(C)(C)c1cccc(NC(=O)c2ccc(Oc3cc4c(cc3C#N)C(C(=O)O)CCO4)cc2)c1` (centres unmarked) [Example 134, 7-(4-(3-tert-Butylphenylcarbamoyl)phenoxy)-6-cyanochroman-4-carboxylic acid]: the concentration for a half-maximal effect (EC50) came out at 112 nM.
